Tests used:
HiBit-BRM fusion protein = target: T1, HiBit-BRM fusion protein (Homo sapiens, UniProt P51531); test: HiBiT-BRM cell-based degradation assay (Nano-Glo HiBiT lytic detection, 24 h); details: HeLa cell line expressing HiBiT-BRM; for DC50: read-out: BRM HiBit Degradation IC50
T1 construct: expressed in transfected cells
Description: (§1) Procedure: A stable HeLa cell line expressing HiBiT-BRM was generated. On day 0, 5000 cells were seeded in 40 μL of media into each well of 384-well cell culture plates. On day 1, cells were treated with 120 nL DMSO or 120 nL of 3-fold serially DMSO-diluted compounds (10 points in duplicate with 30 μM as final top dose). Subsequently plates were incubated for 24 h in a standard tissue culture incubator and equilibrated at room temperature for 15 minutes. Nano-GB HiBiT Lytic Detection System (Promega N3050) reagent was freshly prepared and 20 ul was added to each well. Upon addition of this LgBit-containing reagent, the HiBiT and LgBiT proteins associate to form the luminescent NanoBiT luciferase. The plates were shaken for 10 minutes at room temperature and the bioluminescence read using an EnVision plate reader (PerkinElmer).
(§2) The degradation % was calculated using the following formula: % degradation=100%−100%×(Lumsample−LuMLC)/(LuMHC−LuMLC). DMSO treated cells are employed as High Control (HC) and 2 μM of a known BRM/BRG1 degrader standard treated cells are employed as Low Control (LC).

[1] = target: T2, HiBit-BRG1 fusion protein (Homo sapiens, UniProt P51532); test: HiBiT-BRG1 cell-based degradation assay (Nano-Glo HiBiT lytic detection, 24 h); details: HeLa cell line expressing HiBit-BRG1 and LgBit; for Dmax: read-out: BRG1 HiBit Degradation Maximum (%); for DC50: read-out: BRMG1 HiBit Degradation IC50
T2 construct: expressed in transfected cells
T2 sequence (P51532 whole entry, the tested form may be a part): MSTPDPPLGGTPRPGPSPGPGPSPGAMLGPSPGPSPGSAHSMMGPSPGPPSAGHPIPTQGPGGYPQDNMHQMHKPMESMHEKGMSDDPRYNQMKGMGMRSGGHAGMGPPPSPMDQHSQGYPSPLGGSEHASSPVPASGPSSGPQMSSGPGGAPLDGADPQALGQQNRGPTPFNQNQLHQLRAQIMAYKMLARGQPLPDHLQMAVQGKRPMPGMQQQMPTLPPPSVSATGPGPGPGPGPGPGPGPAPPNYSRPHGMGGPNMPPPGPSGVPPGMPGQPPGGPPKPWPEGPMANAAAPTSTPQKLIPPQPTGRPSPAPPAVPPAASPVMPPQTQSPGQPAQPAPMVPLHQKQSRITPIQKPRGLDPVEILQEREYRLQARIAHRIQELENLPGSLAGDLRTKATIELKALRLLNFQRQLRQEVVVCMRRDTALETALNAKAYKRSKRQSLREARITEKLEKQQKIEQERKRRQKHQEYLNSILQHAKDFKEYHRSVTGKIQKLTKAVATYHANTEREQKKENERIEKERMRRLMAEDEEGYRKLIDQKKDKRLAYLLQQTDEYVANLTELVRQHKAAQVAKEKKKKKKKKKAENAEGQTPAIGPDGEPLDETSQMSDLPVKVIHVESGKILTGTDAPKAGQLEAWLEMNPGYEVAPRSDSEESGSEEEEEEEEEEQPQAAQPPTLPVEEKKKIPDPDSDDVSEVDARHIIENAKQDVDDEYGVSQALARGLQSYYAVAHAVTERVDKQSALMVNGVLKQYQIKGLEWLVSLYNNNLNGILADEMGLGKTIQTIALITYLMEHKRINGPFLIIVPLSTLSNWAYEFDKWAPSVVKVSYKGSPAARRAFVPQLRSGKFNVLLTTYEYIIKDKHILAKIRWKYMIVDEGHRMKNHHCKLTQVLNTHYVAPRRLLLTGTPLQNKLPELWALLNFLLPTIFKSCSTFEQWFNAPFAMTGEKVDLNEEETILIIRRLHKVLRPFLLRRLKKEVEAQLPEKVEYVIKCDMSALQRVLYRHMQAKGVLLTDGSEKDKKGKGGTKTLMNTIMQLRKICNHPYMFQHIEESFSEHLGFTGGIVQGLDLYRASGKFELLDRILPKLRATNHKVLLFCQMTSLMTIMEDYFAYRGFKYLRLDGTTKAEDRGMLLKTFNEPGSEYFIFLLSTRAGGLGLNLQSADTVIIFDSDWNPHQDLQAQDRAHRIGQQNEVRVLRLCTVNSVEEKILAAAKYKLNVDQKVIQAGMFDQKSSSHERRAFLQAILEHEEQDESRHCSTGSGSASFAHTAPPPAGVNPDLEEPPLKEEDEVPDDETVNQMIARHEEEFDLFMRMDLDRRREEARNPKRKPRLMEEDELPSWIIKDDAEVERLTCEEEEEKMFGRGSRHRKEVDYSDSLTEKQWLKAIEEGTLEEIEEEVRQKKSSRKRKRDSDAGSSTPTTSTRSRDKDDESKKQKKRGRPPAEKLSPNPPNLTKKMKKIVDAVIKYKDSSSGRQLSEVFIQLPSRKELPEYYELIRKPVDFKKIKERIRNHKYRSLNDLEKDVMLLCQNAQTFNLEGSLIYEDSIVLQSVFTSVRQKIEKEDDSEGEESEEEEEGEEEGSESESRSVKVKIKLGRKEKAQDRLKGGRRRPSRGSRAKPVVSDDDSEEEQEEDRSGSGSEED
Description: as §1, with “On day 1, cells were treated with 120 nL DMSO or 120 nL of 3-fold serially DMSO-diluted compounds (10 points in duplicate with 30 μM as final top dose).” left out
For measurement of BRG1 degradation, a stable HeLa cell line expressing HiBit-BRG1 and LgBit was generated. The same protocol as above was then followed.
as §2

T1 sequence (P51531 whole entry, the tested form may be a part): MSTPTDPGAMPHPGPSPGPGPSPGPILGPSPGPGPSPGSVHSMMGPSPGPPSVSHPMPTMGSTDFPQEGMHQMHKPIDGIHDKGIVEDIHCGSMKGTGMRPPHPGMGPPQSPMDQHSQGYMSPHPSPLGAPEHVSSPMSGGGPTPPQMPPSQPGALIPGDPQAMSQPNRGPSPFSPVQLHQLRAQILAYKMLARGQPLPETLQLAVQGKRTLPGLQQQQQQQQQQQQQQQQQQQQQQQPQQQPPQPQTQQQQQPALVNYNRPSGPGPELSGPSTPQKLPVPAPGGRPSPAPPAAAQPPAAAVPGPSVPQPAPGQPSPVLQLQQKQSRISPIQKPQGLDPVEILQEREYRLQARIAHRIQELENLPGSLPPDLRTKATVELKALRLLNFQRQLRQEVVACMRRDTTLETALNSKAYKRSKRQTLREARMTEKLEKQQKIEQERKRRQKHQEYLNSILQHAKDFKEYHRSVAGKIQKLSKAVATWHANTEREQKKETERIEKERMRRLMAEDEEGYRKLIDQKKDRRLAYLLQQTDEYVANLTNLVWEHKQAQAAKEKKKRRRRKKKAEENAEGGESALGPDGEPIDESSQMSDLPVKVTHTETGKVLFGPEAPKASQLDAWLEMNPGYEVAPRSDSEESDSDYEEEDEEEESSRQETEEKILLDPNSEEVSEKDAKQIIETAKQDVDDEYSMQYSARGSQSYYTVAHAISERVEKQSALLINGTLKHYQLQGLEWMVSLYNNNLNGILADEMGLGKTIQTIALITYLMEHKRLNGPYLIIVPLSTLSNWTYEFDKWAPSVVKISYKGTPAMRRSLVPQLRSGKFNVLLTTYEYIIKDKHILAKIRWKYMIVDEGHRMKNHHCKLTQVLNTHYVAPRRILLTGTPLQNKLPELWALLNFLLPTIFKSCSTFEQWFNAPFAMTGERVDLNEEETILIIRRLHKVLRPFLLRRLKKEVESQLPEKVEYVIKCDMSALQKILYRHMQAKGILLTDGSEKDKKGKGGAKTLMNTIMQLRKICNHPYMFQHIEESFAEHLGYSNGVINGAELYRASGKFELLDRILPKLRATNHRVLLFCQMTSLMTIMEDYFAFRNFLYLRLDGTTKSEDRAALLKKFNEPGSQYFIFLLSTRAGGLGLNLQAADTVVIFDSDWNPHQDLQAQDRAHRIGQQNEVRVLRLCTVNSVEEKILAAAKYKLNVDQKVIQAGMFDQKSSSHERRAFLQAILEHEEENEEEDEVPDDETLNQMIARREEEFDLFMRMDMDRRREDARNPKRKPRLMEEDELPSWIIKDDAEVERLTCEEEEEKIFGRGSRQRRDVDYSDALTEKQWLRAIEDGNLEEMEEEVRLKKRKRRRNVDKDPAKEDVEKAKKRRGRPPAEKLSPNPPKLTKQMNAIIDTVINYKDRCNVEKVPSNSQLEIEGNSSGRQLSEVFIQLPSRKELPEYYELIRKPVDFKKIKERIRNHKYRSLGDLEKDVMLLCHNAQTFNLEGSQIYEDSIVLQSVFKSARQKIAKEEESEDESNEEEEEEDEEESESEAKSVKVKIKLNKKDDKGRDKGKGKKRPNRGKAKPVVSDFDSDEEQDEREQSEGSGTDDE

| SMILES | DC50 (HiBit-BRM fusion protein) [nM] | Dmax [1] [%] | DC50 [1] [nM] | BRM HiBit Degradation Maximum (%) (HiBit-BRM fusion protein) |
| --- | --- | --- | --- | --- |
| Cc1ncsc1-c1ccc([C@H](C)NC(=O)[C@@H]2C[C@@H](O)CN2C(=O)[C@@H](c2cc(-c3cc(N4CC[C@@H](c5cc6nnc(-c7ccccc7O)cc6n5C5CC5)C4)ccn3)no2)C(C)C)cc1 (single isomer, unassigned) [Compound 91] | > 10 | < 50 | – | A (“A” indicates maximum degradation ≥75%) |
| Cc1ncsc1-c1ccc([C@H](C)NC(=O)[C@@H]2C[C@@H](O)CN2C(=O)[C@@H](c2cc(OCCN3CC(c4cc5nnc(-c6ccccc6O)cc5[nH]4)C3)no2)C(C)C)cc1 [Compound 1, (2S,4R)-4-hydroxy-1-[(2R)-2-[3-(2-{3-[3-(2-hydroxyphenyl)-5H-pyrrolo[3,2-c]pyridazin-6-yl]azetidin-1-yl}ethoxy)-1,2-oxazol-5-yl]-3-methylbutanoyl]-N-[(1S)-1-[4-(4-methyl-1,3-thiazol-5-yl)phenyl]ethyl]pyrrolidine-2-carboxamide] | > 10 | > 75 | > 100 | A (“A” indicates maximum degradation ≥75%) |
| Cc1ncsc1-c1ccc([C@H](C)NC(=O)[C@@H]2C[C@@H](O)CN2C(=O)[C@@H](c2cc(N(C)CCN3CC(c4cc5nnc(-c6ccccc6O)cc5[nH]4)C3)no2)C(C)C)cc1 [Compound 2, (2S,4R)-4-hydroxy-1-((R)-2-(3-((2-(3-(3-(2-hydroxyphenyl)-5H-pyrrolo[3,2-c]pyridazin-6-yl)azetidin-1-yl)ethyl)(methyl)amino)isoxazol-5-yl)-3-methylbutanoyl)-N-((S)-1-(4-(4-methylthiazol-5-yl)phenyl)ethyl)pyrrolidine-2-carboxamide] | > 100 | < 50 | – | A (“A” indicates maximum degradation ≥75%) |
| Cc1ncsc1-c1ccc([C@H](C)NC(=O)[C@@H]2C[C@@H](O)CN2C(=O)[C@@H](c2cc(OCC(=O)N3CC(c4cc5nnc(-c6ccccc6O)cc5[nH]4)C3)no2)C(C)C)cc1 [Compound 7, (2S,4R)-4-hydroxy-1-((R)-2-(3-(2-(3-(3-(2-hydroxyphenyl)-5H-pyrrolo[3,2-c]pyridazin-6-yl)azetidin-1-yl)-2-oxoethoxy)isoxazol-5-yl)-3-methylbutanoyl)-N-((S)-1-(4-(4-methylthiazol-5-yl)phenyl)ethyl)pyrrolidine-2-carboxamide] | > 100 | < 50 | – | A (“A” indicates maximum degradation ≥75%) |
| Cc1ncsc1-c1ccc([C@H](C)NC(=O)[C@@H]2C[C@@H](O)CN2C(=O)[C@@H](c2cc(N3CCC(CN4CC(c5cc6nnc(-c7ccccc7O)cc6n5C)C4)CC3)no2)C(C)C)cc1 [Compound 9, (2S,4R)-4-hydroxy-1-((R)-2-(3-(4-((3-(3-(2-hydroxyphenyl)-5-methyl-5H-pyrrolo[3,2-c]pyridazin-6-yl)azetidin-1-yl)methyl)piperidin-1-yl)isoxazol-5-yl)-3-methylbutanoyl)-N-((S)-1-(4-(4-methylthiazol-5-yl)phenyl)ethyl)pyrrolidine-2-carboxamide] | > 10 | < 50 | – | A (“A” indicates maximum degradation ≥75%) |
| Cc1ncsc1-c1ccc([C@H](C)NC(=O)[C@@H]2C[C@@H](O)CN2C(=O)[C@@H](c2cc(N(C)CCN3CC(c4cc5nnc(-c6ccccc6O)cc5n4C)C3)no2)C(C)C)cc1 [Compound 10, (2S,4R)-4-hydroxy-1-((R)-2-(3-((2-(3-(3-(2-hydroxyphenyl)-5-methyl-5H-pyrrolo[3,2-c]pyridazin-6-yl)azetidin-1-yl)ethyl)(methyl)amino)isoxazol-5-yl)-3-methylbutanoyl)-N-((S)-1-(4-(4-methylthiazol-5-yl)phenyl)ethyl)pyrrolidine-2-carboxamide] | > 10 | > 50 | > 1000 | A (“A” indicates maximum degradation ≥75%) |
| Cc1ncsc1-c1ccc([C@H](C)NC(=O)[C@@H]2C[C@@H](O)CN2C(=O)[C@@H](c2cc(OCCCN3CC(c4cc5nnc(-c6ccccc6O)cc5n4C)C3)no2)C(C)C)cc1 [Compound 11, (2S,4R)-4-hydroxy-1-((R)-2-(3-(3-(3-(3-(2-hydroxyphenyl)-5-methyl-5H-pyrrolo[3,2-c]pyridazin-6-yl)azetidin-1-yl)propoxy)isoxazol-5-yl)-3-methylbutanoyl)-N-((S)-1-(4-(4-methylthiazol-5-yl)phenyl)ethyl)pyrrolidine-2-carboxamide] | > 10 | < 50 | – | A (“A” indicates maximum degradation ≥75%) |

Continued, in another order:

| DC50 (HiBit-BRM fusion protein) [nM] | Dmax [1] [%] | DC50 [1] [nM] | SMILES | BRM HiBit Degradation Maximum (%) (HiBit-BRM fusion protein) |
| --- | --- | --- | --- | --- |
| < 10 | < 50 | – | Cc1cc(-c2cc([C@H](C(=O)N3C[C@H](O)C[C@H]3C(=O)N[C@@H](C)c3ccc(-c4scnc4C)cc3)C(C)C)on2)cnc1N1CC[C@H](c2cc3nnc(-c4ccccc4O)cc3n2C2CC2)C1 (single isomer, unassigned) [Compound 110] | A (“A” indicates maximum degradation ≥75%) |
| > 1000 | – | – | Cc1ncsc1-c1ccc([C@H](C)NC(=O)[C@@H]2C[C@@H](O)CN2C(=O)[C@@H](c2cc(OCCCN3CC(c4cc5nnc(-c6ccccc6O)cc5[nH]4)C3)no2)C(C)C)cc1 [Compound 3, (2S,4R)-4-hydroxy-1-((R)-2-(3-(3-(3-(3-(2-hydroxyphenyl)-5H-pyrrolo[3,2-c]pyridazin-6-yl)azetidin-1-yl)propoxy)isoxazol-5-yl)-3-methylbutanoyl)-N-((S)-1-(4-(4-methylthiazol-5-yl)phenyl)ethyl)pyrrolidine-2-carboxamide, formic acid] | B (“B” indicates maximum degradation ≥50%) |
| > 10 | > 50 | > 100 | Cc1ncsc1-c1ccc([C@H](C)NC(=O)[C@@H]2C[C@@H](O)CN2C(=O)[C@@H](c2cc(N3CCC(CN4CC(c5cc6nnc(-c7ccccc7O)cc6[nH]5)C4)CC3)no2)C(C)C)cc1 [Compound 4, (2S,4R)-4-hydroxy-1-((R)-2-(3-(4-((3-(3-(2-hydroxyphenyl)-5H-pyrrolo[3,2-c]pyridazin-6-yl)azetidin-1-yl)methyl)piperidin-1-yl)isoxazol-5-yl)-3-methylbutanoyl)-N-((S)-1-(4-(4-methylthiazol-5-yl)phenyl)ethyl)pyrrolidine-2-carboxamide] | A (“A” indicates maximum degradation ≥75%) |
| < 10 | > 75 | > 100 | Cc1ncsc1-c1ccc([C@H](C)NC(=O)[C@@H]2C[C@@H](O)CN2C(=O)[C@@H](c2cc(N3CCC(N4CC(c5cc6nnc(-c7ccccc7O)cc6[nH]5)C4)CC3)no2)C(C)C)cc1 [Compound 5, (2S,4R)-4-hydroxy-1-((R)-2-(3-(4-(3-(3-(2-hydroxyphenyl)-5H-pyrrolo[3,2-c]pyridazin-6-yl)azetidin-1-yl)piperidin-1-yl)isoxazol-5-yl)-3-methylbutanoyl)-N-((S)-1-(4-(4-methylthiazol-5-yl)phenyl)ethyl)pyrrolidine-2-carboxamide] | A (“A” indicates maximum degradation ≥75%) |
| > 10 | > 75 | > 100 | Cc1ncsc1-c1ccc([C@H](C)NC(=O)[C@@H]2C[C@@H](O)CN2C(=O)[C@@H](c2cc(N3CCC(C(=O)N4CC(c5cc6nnc(-c7ccccc7O)cc6[nH]5)C4)CC3)no2)C(C)C)cc1 [Compound 6] | A (“A” indicates maximum degradation ≥75%) |
| < 10 | > 75 | > 10 | Cc1ncsc1-c1ccc([C@H](C)NC(=O)[C@@H]2C[C@@H](O)CN2C(=O)[C@@H](c2cc(OCCN3CC(c4cc5nnc(-c6ccccc6O)cc5n4C)C3)no2)C(C)C)cc1 [Compound 8, (2S,4R)-4-hydroxy-1-((R)-2-(3-(2-(3-(3-(2-hydroxyphenyl)-5-methyl-5H-pyrrolo[3,2-c]pyridazin-6-yl)azetidin-1-yl)ethoxy)isoxazol-5-yl)-3-methylbutanoyl)-N—((S)-1-(4-(4-methylthiazol-5-yl)phenyl)ethyl) pyrrolidine-2-carboxamide] | A (“A” indicates maximum degradation ≥75%) |

Source: patent publication US20250302832A1, “PYRAZINE DERIVATIVES AND USES THEREOF” (FOGHORN THERAPEUTICS INC., priority 2022, published 2025)
